In the Kinase Knowledgebase extract (Sharma et al. 2016):

biological target: PIK3CA (human) (UniProt P42336); experiment: Assessment of PIK3CA Kinase Activity
Sequence (P42336 whole entry, looked up): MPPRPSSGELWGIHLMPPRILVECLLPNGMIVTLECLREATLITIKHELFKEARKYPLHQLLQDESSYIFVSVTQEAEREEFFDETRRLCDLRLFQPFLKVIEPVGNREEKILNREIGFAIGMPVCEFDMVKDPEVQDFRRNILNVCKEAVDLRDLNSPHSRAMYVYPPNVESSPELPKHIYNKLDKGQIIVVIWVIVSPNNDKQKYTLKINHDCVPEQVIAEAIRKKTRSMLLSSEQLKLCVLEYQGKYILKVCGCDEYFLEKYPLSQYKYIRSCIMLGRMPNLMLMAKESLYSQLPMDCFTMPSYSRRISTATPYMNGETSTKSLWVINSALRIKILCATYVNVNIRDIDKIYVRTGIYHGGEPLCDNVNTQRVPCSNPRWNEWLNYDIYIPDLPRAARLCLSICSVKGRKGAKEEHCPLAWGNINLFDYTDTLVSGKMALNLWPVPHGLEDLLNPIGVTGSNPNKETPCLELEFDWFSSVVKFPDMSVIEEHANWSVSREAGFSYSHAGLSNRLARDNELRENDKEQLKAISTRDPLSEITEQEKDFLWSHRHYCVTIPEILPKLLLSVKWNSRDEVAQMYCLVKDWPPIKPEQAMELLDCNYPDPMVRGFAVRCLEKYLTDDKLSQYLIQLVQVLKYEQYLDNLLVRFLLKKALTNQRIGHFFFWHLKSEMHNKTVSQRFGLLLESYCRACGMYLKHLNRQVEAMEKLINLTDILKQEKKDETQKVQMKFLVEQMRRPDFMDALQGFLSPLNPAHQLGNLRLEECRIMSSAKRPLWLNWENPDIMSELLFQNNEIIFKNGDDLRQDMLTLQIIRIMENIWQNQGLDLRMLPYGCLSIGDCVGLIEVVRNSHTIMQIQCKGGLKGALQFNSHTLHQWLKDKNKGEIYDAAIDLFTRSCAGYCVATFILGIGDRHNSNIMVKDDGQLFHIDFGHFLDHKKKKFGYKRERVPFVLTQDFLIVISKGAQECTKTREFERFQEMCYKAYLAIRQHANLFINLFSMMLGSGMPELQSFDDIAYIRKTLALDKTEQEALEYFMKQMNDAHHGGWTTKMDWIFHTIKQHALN

IC50, < 1000 nM:
Fc1ccc(-n2ncnc2-c2cc3c(s2)-c2nc(-c4ccc(N5CCCCC5)nc4)ccc2OCC3)c(F)c1
Fc1ccc(-n2ncnc2-c2cc3c(s2)-c2nc(-c4ccc(NCCN5CCOCC5)nc4)ccc2OCC3)c(F)c1
OCCNc1ccc(-c2ccc3c(n2)-c2sc(-c4ncnn4-c4ccc(F)cc4F)cc2CCO3)cn1
Cc1ncccc1-c1ccc2c(c1)-c1nc(-c3ncnn3C(C)C)sc1CCO2
CC(C)n1ncnc1-c1nc2c(s1)CCOc1cc(C3CN(Cc4ncco4)C3)ccc1-2
O=C(c1nc2c(s1)CCOc1cc(-c3cn[nH]c3)ccc1-2)N1CCN(CC2CC2)CC1
CC(C)(C)C1CCN(C(=O)c2nc3c(s2)CCOc2cc(-c4cn[nH]c4)ccc2-3)CC1
Fc1ccc(-n2ncnc2-c2nc3c(s2)CCOc2cc(-c4cn[nH]c4)ccc2-3)c(F)c1
CN(C)C(=O)c1nc2c(s1)CCOc1cc(-c3cn[nH]c3)ccc1-2
CC(C)n1ncnc1-c1nc2c(s1)CCOc1cc(C3CN(CC(=O)NCC(C)(C)O)C3)ccc1-2
CN1CCN(c2ccc3c(n2)-c2sc(-c4ncnn4-c4ccc(F)cc4F)cc2CCO3)CC1
CC(C)n1cnnc1-c1nc2c(s1)CCOc1cc(CNCC(F)(F)F)ccc1-2
CC(C)n1ncnc1-c1nc2c(s1)CCOc1cc(-c3cnn(CCOP(=O)(O)O)c3)ccc1-2
COCCN(C)C(=O)c1nc2c(s1)CCOc1cc(-c3cn[nH]c3)ccc1-2
CC(C)N(CCO)C(=O)c1nc2c(s1)CCOc1cc(-c3cnn(CCN4CCOCC4)c3)ccc1-2
CC(=O)N1CC(n2ccnc2-c2nc3c(s2)CCOc2cc(-c4cnn(CC(C)(C)O)c4)ccc2-3)C1
CC(C)N(CCO)C(=O)c1nc2c(s1)CCOc1ccc(-c3cnn(CCO)c3)cc1-2
Nc1nc(-c2cc3c(s2)-c2ccc(C(=O)NC4COC4)cc2OCC3)n(-c2ccc(F)cc2F)n1
C[C@H](O)C(=O)N1CC(Nc2ccc3c(n2)-c2sc(-c4ncnn4-c4ccc(F)cc4F)cc2CCO3)C1
COc1cncc(-c2ccc3c(c2)-c2nc(-c4ncnn4C(C)C)sc2CCO3)c1
COCCN1CC(c2ccc3c(c2)OCCc2sc(-c4nc(C)nn4C(C)C)nc2-3)C1
CC(O)CNc1ccc2c(n1)-c1sc(-c3ncnn3-c3ccc(F)cc3F)cc1CCO2 (configuration not stated)
C[C@H](O)CNC(=O)c1ccc(Cl)c(N(C)C(=O)c2cc3c(s2)-c2ccc(C(=O)NCCS(C)(=O)=O)cc2OCC3)c1
CC(C)n1ncnc1-c1nc2c(s1)CCOc1cc(-c3cccnc3F)ccc1-2
CC(C)n1ncnc1-c1nc2c(s1)CCOc1ccc(-c3ccc(F)nc3)cc1-2
CC(C)n1ncnc1-c1nc2c(s1)CCOc1ccc(-c3cncc(S(C)(=O)=O)c3)cc1-2
CNC1CCN(C(=O)c2nc3c(s2)CCOc2cc(-c4cn[nH]c4)ccc2-3)C1 (configuration not stated)
O=C(c1nc2c(s1)CCOc1cc(-c3cn[nH]c3)ccc1-2)N1CCC[C@@H](C(F)(F)F)C1
CC(C)n1ncnc1-c1nc2c(s1)CCOc1cc(C3(F)CCN(CC(=O)N(C)C)CC3)ccc1-2
CN(C)CCNc1ccc(-c2ccc3c(n2)-c2sc(-c4ncnn4-c4ccc(F)cc4F)cc2CCO3)cn1
CS(=O)(=O)N1CCN(C(=O)c2nc3c(s2)CCOc2cc(-c4cn[nH]c4)ccc2-3)CC1
Cc1ncccc1-c1ccc2c(n1)-c1sc(-c3nccn3C(C)C)cc1CCO2
CNC(=O)Cn1ccnc1-c1nc2c(s1)CCOc1cc(-c3cnn(CC(C)(C)O)c3)ccc1-2
CC(C)n1ncnc1-c1nc2c(s1)CCOc1cc(C3CN(CC(N)=O)C3)ccc1-2
Cc1nc(-c2nc3c(s2)CCOc2cc(-c4cnn(C5CN(CC(C)(C)O)C5)c4)ccc2-3)n(C(C)C)n1
CC(C)N(CCCO)C(=O)c1nc2c(s1)CCOc1cc(-c3cn[nH]c3)ccc1-2
COCCNC(=O)c1ccc2c(c1)OCCc1sc(-c3ncnn3C(C)C)nc1-2
CC(C)n1ncnc1-c1nc2c(s1)CCOc1cc(C3CN(S(=O)(=O)CCN(C)C)C3)ccc1-2
Cc1nc(-c2nc3c(s2)CCOc2cc(CN)ccc2-3)n(C(C)C)n1
CCOc1ncccc1-c1ccc2c(c1)-c1nc(-c3ncnn3C(C)C)sc1CCO2
CNC(=O)c1ccc2c(c1)OCCc1cc(C(=O)N(C)c3cc(C(=O)N4CC(O)C4)ccc3Cl)sc1-2
CN1CCC(CNc2ccc3c(n2)-c2sc(-c4ncnn4-c4ccc(F)cc4F)cc2CCO3)CC1
Cc1cccc(N2CCN(C(=O)c3nc4c(s3)CCOc3cc(-c5cn[nH]c5)ccc3-4)CC2)n1
O=C(O)Cn1cc(-c2ccc3c(c2)OCCc2sc(-c4ncnn4CC(F)(F)F)nc2-3)cn1
OCCn1cc(-c2ccc3c(c2)OCCc2sc(-c4ncnn4-c4ccc(F)cc4F)nc2-3)cn1
CN(C[C@@H](O)CO)C(=O)c1nc2c(s1)CCOc1cc(-c3cn[nH]c3)ccc1-2
CC(C)n1ncnc1-c1nc2c(s1)CCOc1ccc(C3CN(C(=O)[C@H](C)O)C3)cc1-2
COc1ccc(-c2ccc3c(n2)-c2sc(-c4ncnn4-c4ccc(F)cc4F)cc2CCO3)cn1
CC(C)n1ncnc1-c1nc2c(s1)CCOc1ccc(-c3ccc(S(N)(=O)=O)cc3)cc1-2
CC(C)n1ncnc1-c1nc2c(s1)CCOc1ccc(-c3cc[nH]c(=O)c3)cc1-2
CC(C)n1ncnc1-c1nc2c(s1)CCOc1ccc(-c3c[nH]c(=O)[nH]c3=O)cc1-2
O=C(c1nc2c(s1)CCOc1cc(-c3cn[nH]c3)ccc1-2)N1CCC1
CC(C)n1ncnc1-c1nc2c(s1)CCOc1cc(C(=O)NCCOCCO)ccc1-2
CC(O)C(=O)N1CC(n2cc(-c3ccc4c(c3)OCCc3sc(-c5ncnn5C(C)C)nc3-4)cn2)C1 (configuration not stated)
Cc1cc(-c2ccc3c(n2)-c2sc(-c4ncnn4-c4ccc(F)cc4F)cc2CCO3)cnc1F
COCCn1cccc(-c2ccc3c(c2)-c2nc(-c4ncnn4C(C)C)sc2CCO3)c1=O
CC1(C)C(=O)NC(=O)N1c1nc2c(s1)CCOc1ccccc1-2
N#C[C@@H]1CCCN1C(=O)c1nc2c(s1)CCOc1cc(-c3cn[nH]c3)ccc1-2
CC(C)n1ncnc1-c1nc2c(s1)CCOc1cc(-c3cc[nH]c(=O)c3)ccc1-2
Cc1nc(-c2nc3c(s2)CCOc2cc([C@@H]4CCCNC4)ccc2-3)n(C(C)C)n1
CC(C)n1nc(N)nc1-c1nc2c(s1)CCOc1cc(-c3cnn(CC4(C)COC4)c3)ccc1-2
CC(C)n1ncnc1-c1nc2c(s1)CCOc1ccc(C3CN(Cc4ccc(F)cc4F)C3)cc1-2
CC(C)n1ncnc1-c1nc2c(s1)CCOc1ccc(-c3ccc(S(C)(=O)=O)cc3)cc1-2
CC(C)n1ncnc1-c1nc2c(s1)CCOc1cc(C3(O)CCNCC3)ccc1-2
Cc1ccncc1-c1ccc2c(c1)-c1nc(-c3ncnn3C(C)C)sc1CCO2
O=S1(=O)CCN(c2ccc3c(n2)-c2sc(-c4ncnn4-c4ccc(F)cc4F)cc2CCO3)CC1
FC(F)(F)Cn1ncnc1-c1nc2c(s1)CCOc1cc(-c3cnn(CCN4CCOCC4)c3)ccc1-2
COCC1CCN(C(=O)c2nc3c(s2)CCOc2cc(-c4cn[nH]c4)ccc2-3)CC1
O=C(O)CNc1ccc2c(n1)-c1sc(-c3ncnn3-c3ccc(F)cc3F)cc1CCO2
CNC(=O)CN1CCC(c2ccc3c(c2)OCCc2sc(-c4ncnn4C(C)C)nc2-3)CC1
CN(C)CCN(C(=O)c1nc2c(s1)CCOc1cc(-c3cnn(CC(C)(C)O)c3)ccc1-2)C1CCCCC1
CN(CC(=O)N1CCOCC1)C(=O)c1nc2c(s1)CCOc1cc(-c3cn[nH]c3)ccc1-2
CC(C)(CO)n1cc(-c2ccc3c(c2)OCCc2sc(-c4ncnn4CC(F)(F)F)nc2-3)cn1
CN1CCC(n2ncnc2-c2nc3c(s2)CCOc2cc(-c4cnn(CC(C)(C)O)c4)ccc2-3)CC1
C[C@H](O)CNC(=O)c1ccc2c(c1)OCCc1sc(-c3ncnn3CC(F)(F)F)nc1-2
O=C(c1nc2c(s1)CCOc1cc(-c3cn[nH]c3)ccc1-2)N1CCN(C(=O)[C@H]2CCCO2)CC1
CC(C)n1ncnc1-c1nc2c(s1)CCOc1cc(C3CN(CCS(=O)(=O)N4CC(F)(F)C4)C3)ccc1-2
O=C(c1nc2c(s1)CCOc1cc(-c3cn[nH]c3)ccc1-2)N1CCN(c2ncccn2)CC1
CC(C)n1ncnc1-c1nc2c(s1)CCOc1cc(C3CCN(S(C)(=O)=O)CC3)ccc1-2
CC(C)n1ncnc1-c1nc2c(s1)CCOc1ccc(C3CN(C(=O)[C@@H](C)O)C3)cc1-2
O=C(c1ccccc1)N1CCN(C(=O)c2nc3c(s2)CCOc2cc(-c4cn[nH]c4)ccc2-3)CC1
CC(C)n1ncnc1-c1nc2c(s1)CCOc1ccc(C3CCN(CC(N)=O)CC3)cc1-2
